Several values for one entry are separate records, joined by “and”; a condition that tells them apart may be missing. Equal values may be shown once.
Legend:
human nasal mucosa [1] = conditions: 2 µL applied, media harvested daily for five days, n = 3
Method: Lactate dehydrogenase (LDH) is an oxidoreductase enzyme found in living cells that is released into the cytoplasm upon cell lysis that is under stressor conditions. LDH is detected via a colourimetric cytotoxicity assay that provides a measure of membrane integrity, with high titres of LDH being an indicator of acute cellular damage/toxicity (Lim et al, International Forum of Allergy & Rhinology, 2012, 2(1): p 63-68). […] Acute toxicity was assessed in freshly explanted human nasal tissue.
Human specimens were dissected, connective tissue, debris or blood were removed utilising a 15 blade scalpel and divided into 2-3 mm x 2-3 mm x 1-2 mm sections. […]
LDH was used as the biomarker and analysed using the CytoTox 96® Non-Radioactive cytotoxicity assay kit following manufacturer instructions (Promega, Madison WI). […] After the end of the study, the absorbance of each sample was obtained at 490 nm using FLUOstar Omega Spectrophotometer (BMG Labtech, Offenburg, Germany). The extracellular LDH level was calculated as changes in the LDH levels of tissues treated with a formulation versus tissues treated with PBS. Statistical differences were analysed by one-way ANOVA followed by Dunnet’s multiple comparison test using GraphPad Prism software (v 7.03).

human nasal mucosa [2] = conditions: tissue from end of the 5 day study
Method: Untreated tissue samples and post-treated tissue samples from the end of the study were preserved from each well for histological evaluation. Each sample was fixed using 4% formaldehyde and stored at 4° C. overnight. On the following day, tissues were dipped in 20% sucrose overnight and embedded in OCT, frozen at -20° C. and cryo-sectioned into slices. Staining was performed with hematoxylin and eosin for 1 minute and stained samples dehydrated in ethanol, defatted in xylene and cover-slipped for histological examination.
Tissues were examined for morphological changes.

[3] = tested on: explanted nasal mucosal tissue; experiment: Ex vivo deposition into nasal mucosa, vertical Franz-diffusion apparatus; type: in vitro ADME, human; conditions: for Deposition of key cannabinoids in µg/g of nasal tissue, Decarboxylated (average of batches D19 & D23): 300 µL decarboxylated sol-gel; for Deposition of key cannabinoids in µg/g of nasal tissue, Decarboxylated (average of batches D19 & D23) / Deposition of key cannabinoids in µg/g of nasal tissue, Native (average of batches N22 & 23): 8 hours post-application, 34° C.; for Deposition of key cannabinoids in µg/g of nasal tissue, Native (average of batches N22 & 23): 300 µL native sol-gel
Method: Ex vivo permeation studies were carried out using vertical Franz-diffusion apparatus equipped with temperature-controlled jackets set at 34° C. ± 1° C. Nasal mucosa was taken from middle-turbinate of patients undertaking surgery at Greenslopes Private Hospital. Mucosal tissue was cleaned of blood and bone, then immersed in phosphate-buffered saline (PBS; pH 7.4) at room temperature. The prepared nasal membrane was then sandwiched between donor and receptor cells with the dorsal side of the tissue facing the donor compartment and the ventral side facing the receiver compartment. The receptor cells were filled with 12 mL of PBS and then 300 µL of native or decarboxylated sol-gel samples placed in the donor compartment, ensuring that formulations spread over the entire tissue. To prevent evaporation of the samples, donor cells were covered with Parafilm®. Samples from the receptor cell were taken and volume replaced with PBS at 0, 1, 2, 4, 6 and 8-hours following sol-gel application. Collected tissue samples were then rinsed with MilliQ water after 8 hours, blotted dry with filter paper, wrapped with aluminium foil to protect from light and stored at -80° C. until required for further analysis.
On the day of analysis, the tissue samples were allowed to thaw and were blotted dry using filter paper, cut into small pieces, frozen with liquid nitrogen and ground with a mortar and pestle. Cannabis was extracted from the powdered tissue with ethanol (1 mL) and gently agitated for 12 hours at room temperature. Samples were then transferred to Eppendorf tubes and centrifuged at 10000 rpm for 10 minutes. The supernatant was collected and 100 µL of acetonitrile added to each tube then supernatant collected and again 100 µL was added and stored at -20° C. overnight. The following day each sample was allowed to thaw and centrifuged at 10000 rpm for 10 minutes with supernatant collected and prepared for quantitative analysis using the HPLC method described above in Example 5. Samples of Cannabis sol-gels from native (N22 and N23) and decarboxylated (D19 and D23) extracts were used in this study.
The tissue deposition of cannabinoids was measured per gram of nasal mucosa, with studies based on tissue availability from patients undergoing sinus surgery, and key cannabinoids detected presented in Table 8. The data shown is an average of the 2 native or 2 decarboxylated batches. The amount of sol-gel administered (300 µL) accounts for 3000 µg of cannabinoid content which is a surplus amount (based on micelles, this approximately correlates to the following: for native sol-gels maximum of […] CBDA, 1200 µg THCA; for decarboxylated sol-gels maximum of 960 µg CBDA, 45 µg THCA).

Compound	Extracellular LDH levels versus PBS negative control (human nasal mucosa [1])	Morphological changes of epithelial and sub epithelial layers of nasal mucosa (human nasal mucosa [2])	Deposition of key cannabinoids in µg/g of nasal tissue, Decarboxylated (average of batches D19 & D23) [3]	Deposition of key cannabinoids in µg/g of nasal tissue, Native (average of batches N22 & 23) [3]	Higher tissue level from decarboxylated versus native sol-gels ([3]; decarboxylated versus native extract infused sol-gels)
O=S(=O)([O-])[O-].[Zn+2] [ZnSO4, Zinc sulfate]	significant elevation in LDH levels at day 2	gross cell and tissue structural damage	–	–	–
CCCCCc1cc2c(c(O)c1C(=O)O)C1C=C(C)CCC1C(C)(C)O2 (centres unmarked) [THCA, Δ^9-Tetrahydrocannabinolic acid]	–	–	11.3 µg/g and 11.3 ± 10.2 µg/g	5.73 µg/g and 5.73 ± 0.51 µg/g	–
C=C(C)[C@@H]1CCC(C)=C[C@H]1c1c(O)cc(CCCCC)c(C(=O)O)c1O [CBDA, Cannabidiolic acid]	–	–	10.9 µg/g and 10.9 ± 1.81 µg/g	3.14 µg/g and 3.14 ± 2.98 µg/g	ca. 3 fold
C=C(C)[C@@H]1CCC(C)=C[C@H]1c1c(O)cc(CCCCC)cc1O [CBD, cannabidiol]	–	–	3.56 µg/g and 3.56 ± 1.67 µg/g	3.47 µg/g and 3.47 ± 1.53 µg/g	–
CCCCCc1cc(O)c2c(c1)OC(C)(C)[C@@H]1CCC(C)=C[C@@H]21 [THC, delta-9-tetrahydrocannabinol]	–	–	4.19 µg/g and 4.19 ± 2.20 µg/g	3.54 µg/g and 3.54 ± 1.74 µg/g	–

Reference: patent publication US20230346808A1, “CANNABINOID FORMULATIONS AND METHODS OF USE” (PreveCeutical Medical Inc., priority 2020, published 2023)
